{"source": "ChEMBL document CHEMBL3352320", "about": "“Novel benzothiazinones (BTOs) as allosteric modulator or substrate competitive inhibitor of glycogen synthase kinase 3β (GSK-3β) with cellular activity of promoting glucose uptake” (Bioorg Med Chem Lett, 2014)", "key": {"[1]": {"molecular_target": "T1, Glycogen synthase kinase-3 beta (Homo sapiens, UniProt P49841)", "test": "Inhibition of GSK3beta (unknown origin) using peptide substrate GS2 assessed as ATP remaining by Kinase-Glo luminescent kinase assay"}, "3T3-L1 [2]": {"test_system": "3T3-L1", "test": "Increase in glucose incorporation in mouse 3T3L1 cells at 10 uM after 12 hrs by glucose assay", "type": "functional, cell-based"}, "HepG2 [3]": {"test_system": "HepG2", "test": "Increase in glucose incorporation in human HepG2 cells at 10 uM after 12 hrs by glucose assay", "type": "functional, cell-based"}, "[4]": {"molecular_target": "T1, Glycogen synthase kinase-3 beta", "test": "Inhibition of GSK3beta in human […] cells assessed as decrease in ratio of phosphorylated GS/GS at 10 uM after 12 hrs by Western blot analysis", "type": "cell-based"}, "[5]": {"molecular_target": "Platelet-derived growth factor receptor alpha (Homo sapiens) (UniProt P16234)", "sequence (P16234 whole entry)": "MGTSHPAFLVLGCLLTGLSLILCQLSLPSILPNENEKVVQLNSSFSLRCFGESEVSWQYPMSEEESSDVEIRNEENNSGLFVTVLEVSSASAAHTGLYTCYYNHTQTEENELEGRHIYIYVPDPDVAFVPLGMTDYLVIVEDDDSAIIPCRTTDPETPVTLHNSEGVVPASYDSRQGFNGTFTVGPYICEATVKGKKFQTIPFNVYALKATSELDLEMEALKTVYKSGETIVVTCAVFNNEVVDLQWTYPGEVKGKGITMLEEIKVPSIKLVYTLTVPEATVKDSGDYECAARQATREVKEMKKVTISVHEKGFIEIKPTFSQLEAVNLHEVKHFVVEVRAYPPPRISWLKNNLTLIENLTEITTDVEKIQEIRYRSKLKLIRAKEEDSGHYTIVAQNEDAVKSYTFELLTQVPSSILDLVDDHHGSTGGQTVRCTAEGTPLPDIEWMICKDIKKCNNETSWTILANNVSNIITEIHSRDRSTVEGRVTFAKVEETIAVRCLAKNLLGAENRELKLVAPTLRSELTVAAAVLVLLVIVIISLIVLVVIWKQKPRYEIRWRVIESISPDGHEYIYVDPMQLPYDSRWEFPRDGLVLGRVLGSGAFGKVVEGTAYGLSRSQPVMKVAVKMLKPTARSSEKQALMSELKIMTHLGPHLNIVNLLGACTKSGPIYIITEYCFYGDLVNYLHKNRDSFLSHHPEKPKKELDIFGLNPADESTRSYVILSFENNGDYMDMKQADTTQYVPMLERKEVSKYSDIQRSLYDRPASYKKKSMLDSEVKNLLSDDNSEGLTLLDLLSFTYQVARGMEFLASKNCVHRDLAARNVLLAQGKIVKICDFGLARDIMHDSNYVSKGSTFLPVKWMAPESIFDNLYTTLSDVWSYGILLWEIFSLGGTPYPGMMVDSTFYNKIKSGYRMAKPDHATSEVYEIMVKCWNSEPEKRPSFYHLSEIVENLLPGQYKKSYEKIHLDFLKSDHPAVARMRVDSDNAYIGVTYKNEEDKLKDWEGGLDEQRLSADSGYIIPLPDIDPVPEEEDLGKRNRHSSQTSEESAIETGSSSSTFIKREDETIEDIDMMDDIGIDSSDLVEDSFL", "test": "Inhibition of PDGFRalpha (unknown origin) at 100 uM"}, "[6]": {"molecular_target": "Platelet-derived growth factor receptor beta (Homo sapiens) (UniProt P09619)", "sequence (P09619 whole entry)": "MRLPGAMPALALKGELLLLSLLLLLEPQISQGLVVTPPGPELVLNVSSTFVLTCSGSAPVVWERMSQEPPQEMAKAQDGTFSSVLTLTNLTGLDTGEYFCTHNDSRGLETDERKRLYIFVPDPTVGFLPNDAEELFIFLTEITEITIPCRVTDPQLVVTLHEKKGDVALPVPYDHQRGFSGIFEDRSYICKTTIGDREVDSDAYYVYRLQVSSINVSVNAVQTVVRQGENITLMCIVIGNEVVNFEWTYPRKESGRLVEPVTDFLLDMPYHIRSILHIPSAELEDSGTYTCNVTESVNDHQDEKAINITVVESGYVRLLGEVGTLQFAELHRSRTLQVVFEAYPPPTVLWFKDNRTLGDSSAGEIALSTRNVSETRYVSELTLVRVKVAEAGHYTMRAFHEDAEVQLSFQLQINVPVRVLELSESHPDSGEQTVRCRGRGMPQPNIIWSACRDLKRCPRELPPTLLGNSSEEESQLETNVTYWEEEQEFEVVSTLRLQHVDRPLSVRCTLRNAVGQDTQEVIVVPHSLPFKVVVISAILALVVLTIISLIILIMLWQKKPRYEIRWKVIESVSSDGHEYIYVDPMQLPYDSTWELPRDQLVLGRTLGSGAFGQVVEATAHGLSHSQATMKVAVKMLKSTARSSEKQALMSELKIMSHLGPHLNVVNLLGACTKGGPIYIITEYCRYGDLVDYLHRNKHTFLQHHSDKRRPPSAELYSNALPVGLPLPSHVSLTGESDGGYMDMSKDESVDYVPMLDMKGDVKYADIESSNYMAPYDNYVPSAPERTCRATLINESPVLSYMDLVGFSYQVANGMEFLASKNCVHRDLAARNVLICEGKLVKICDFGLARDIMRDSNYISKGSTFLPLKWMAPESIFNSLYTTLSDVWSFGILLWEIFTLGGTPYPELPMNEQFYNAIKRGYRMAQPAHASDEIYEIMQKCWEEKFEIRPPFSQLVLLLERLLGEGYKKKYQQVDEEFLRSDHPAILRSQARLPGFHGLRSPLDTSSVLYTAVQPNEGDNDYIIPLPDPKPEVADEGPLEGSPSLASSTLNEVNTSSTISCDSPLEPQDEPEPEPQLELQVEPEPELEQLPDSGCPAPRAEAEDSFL", "test": "Inhibition of PDGFRbeta (unknown origin) at 100 uM"}, "HepG2 [7]": {"test_system": "HepG2", "test": "Increase in glucose incorporation in human HepG2 cells at 34 uM after 12 hrs by glucose assay", "type": "functional, cell-based"}, "[8]": {"molecular_target": "T1, Glycogen synthase kinase-3 beta", "details": "HepG2, 34 uM", "description": "Inhibition of GSK3beta in human HepG2 cells assessed as decrease in ratio of phosphorylated GS/GS at 34 uM after 12 hrs by Western blot analysis"}, "3T3-L1 [9]": {"test_system": "3T3-L1", "test": "Increase in glucose incorporation in mouse 3T3L1 cells at 34 uM after 12 hrs by glucose assay", "type": "functional, cell-based"}, "[10]": {"molecular_target": "Protein kinase C alpha type (Homo sapiens) (UniProt P17252)", "test": "Inhibition of PKCalpha (unknown origin) at 100 uM"}, "[11]": {"molecular_target": "T1, Glycogen synthase kinase-3 beta", "test": "Competitive inhibition of GSK3beta (unknown origin) using peptide substrate GS2 assessed as ATP remaining by Kinase-Glo luminescent kinase assay"}, "[12]": {"molecular_target": "Cyclin-dependent kinase 1 (Homo sapiens) (UniProt P06493)", "test": "Inhibition of CDK1 (unknown origin) at 100 uM"}, "[13]": {"molecular_target": "Proto-oncogene tyrosine-protein kinase Src (Homo sapiens) (UniProt P12931)", "details": "at 100 µM", "description": "Inhibition of c-Src (unknown origin) at 100 uM"}, "[14]": {"molecular_target": "Fibroblast growth factor receptor 1 (Homo sapiens) (UniProt P11362)", "sequence (P11362 22-822 limits assumed)": "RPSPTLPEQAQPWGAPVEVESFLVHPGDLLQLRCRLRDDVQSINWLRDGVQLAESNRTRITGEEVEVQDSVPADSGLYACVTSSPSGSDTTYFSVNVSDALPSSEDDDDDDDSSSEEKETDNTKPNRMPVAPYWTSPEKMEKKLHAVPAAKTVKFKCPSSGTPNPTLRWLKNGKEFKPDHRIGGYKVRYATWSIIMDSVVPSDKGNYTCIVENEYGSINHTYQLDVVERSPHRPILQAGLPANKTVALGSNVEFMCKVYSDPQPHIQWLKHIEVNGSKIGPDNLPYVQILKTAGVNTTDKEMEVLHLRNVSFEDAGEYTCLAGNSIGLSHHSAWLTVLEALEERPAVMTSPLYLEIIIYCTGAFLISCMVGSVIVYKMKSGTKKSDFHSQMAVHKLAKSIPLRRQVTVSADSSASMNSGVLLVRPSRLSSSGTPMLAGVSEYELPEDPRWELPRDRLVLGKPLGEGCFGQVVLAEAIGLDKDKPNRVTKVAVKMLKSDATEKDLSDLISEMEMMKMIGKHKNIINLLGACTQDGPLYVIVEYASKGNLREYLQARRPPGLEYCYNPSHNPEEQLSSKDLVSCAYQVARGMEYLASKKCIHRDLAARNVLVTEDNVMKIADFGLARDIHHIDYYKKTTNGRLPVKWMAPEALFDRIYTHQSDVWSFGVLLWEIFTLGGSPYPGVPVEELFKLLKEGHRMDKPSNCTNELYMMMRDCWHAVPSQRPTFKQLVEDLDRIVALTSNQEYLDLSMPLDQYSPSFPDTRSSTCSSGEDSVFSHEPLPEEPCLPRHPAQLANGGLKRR", "test": "Inhibition of FGFR1 (unknown origin) at 100 uM"}, "[15]": {"molecular_target": "Casein kinase II (Homo sapiens) (UniProt P67870+P68400+P19784)", "test": "Inhibition of CK2 (unknown origin) at 100 uM", "type": "protein-complex assay"}, "[16]": {"molecular_target": "Receptor tyrosine-protein kinase erbB-4 (Homo sapiens) (UniProt Q15303)", "sequence (Q15303 whole entry)": "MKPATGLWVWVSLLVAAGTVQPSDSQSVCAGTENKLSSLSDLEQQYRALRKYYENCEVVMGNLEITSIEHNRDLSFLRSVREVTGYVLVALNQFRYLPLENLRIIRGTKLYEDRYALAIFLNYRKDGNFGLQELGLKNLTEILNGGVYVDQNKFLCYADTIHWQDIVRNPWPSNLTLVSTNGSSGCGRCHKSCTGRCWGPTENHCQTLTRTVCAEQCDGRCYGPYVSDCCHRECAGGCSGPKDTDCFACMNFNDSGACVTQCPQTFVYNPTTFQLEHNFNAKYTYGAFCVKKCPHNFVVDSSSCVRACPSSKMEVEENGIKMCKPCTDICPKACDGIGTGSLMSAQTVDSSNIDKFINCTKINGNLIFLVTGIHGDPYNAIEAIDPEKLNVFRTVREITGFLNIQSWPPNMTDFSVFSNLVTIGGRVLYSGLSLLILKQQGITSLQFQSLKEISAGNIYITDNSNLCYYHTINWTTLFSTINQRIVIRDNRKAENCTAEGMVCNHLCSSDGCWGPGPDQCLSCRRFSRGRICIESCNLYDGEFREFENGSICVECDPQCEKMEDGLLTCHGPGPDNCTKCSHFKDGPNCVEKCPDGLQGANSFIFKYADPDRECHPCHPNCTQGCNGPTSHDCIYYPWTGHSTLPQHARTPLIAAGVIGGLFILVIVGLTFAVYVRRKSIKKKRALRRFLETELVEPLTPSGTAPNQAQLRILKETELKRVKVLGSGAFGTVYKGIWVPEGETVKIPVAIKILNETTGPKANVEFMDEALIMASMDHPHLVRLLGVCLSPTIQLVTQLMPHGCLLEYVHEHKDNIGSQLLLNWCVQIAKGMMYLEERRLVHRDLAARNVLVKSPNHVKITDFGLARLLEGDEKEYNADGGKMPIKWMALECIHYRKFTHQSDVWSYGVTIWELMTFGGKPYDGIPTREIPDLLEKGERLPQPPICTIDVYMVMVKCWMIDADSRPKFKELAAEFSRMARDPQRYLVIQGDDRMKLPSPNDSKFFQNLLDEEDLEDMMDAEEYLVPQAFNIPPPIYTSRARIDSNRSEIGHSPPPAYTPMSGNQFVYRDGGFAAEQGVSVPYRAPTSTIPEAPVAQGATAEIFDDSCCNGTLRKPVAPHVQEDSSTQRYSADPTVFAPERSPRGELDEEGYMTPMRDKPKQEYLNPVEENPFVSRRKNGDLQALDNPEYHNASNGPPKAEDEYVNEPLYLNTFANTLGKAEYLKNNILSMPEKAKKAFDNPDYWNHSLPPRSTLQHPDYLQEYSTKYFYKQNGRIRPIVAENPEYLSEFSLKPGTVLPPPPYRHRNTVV", "test": "Inhibition of ErbB4 (unknown origin) at 100 uM"}, "[17]": {"molecular_target": "Vascular endothelial growth factor receptor 2 (Homo sapiens) (UniProt P35968)", "test": "Inhibition of KDR (unknown origin) at 100 uM"}, "3T3-L1 [18]": {"test_system": "3T3-L1", "test": "Increase in glucose incorporation in mouse 3T3L1 cells at 2 uM after 12 hrs by glucose assay", "type": "functional, cell-based"}, "HepG2 [19]": {"test_system": "HepG2", "test": "Increase in glucose incorporation in human HepG2 cells at 2 uM after 12 hrs by glucose assay", "type": "functional, cell-based"}, "[20]": {"molecular_target": "T1, Glycogen synthase kinase-3 beta", "details": "HepG2, 2 uM", "description": "Inhibition of GSK3beta in human HepG2 cells assessed as decrease in ratio of phosphorylated GS/GS at 2 uM after 12 hrs by Western blot analysis"}}, "note": "Calls of active or inactive are those of the source. The calls are words filed in the database; no cut-off is given here. Non-standard residues stand in square brackets, D forms with d. Residues, ends and D or L forms follow the SMILES beside them. *: point of attachment. Myristoyl = CCCCCCCCCCCCCC(=O)*; pS = N[C@@H](COP(=O)(O)O)C(=O)O", "data": [{"smiles": "CCCCCCCCCCCC(=O)NNC(=O)C1Sc2ccccc2N(CC)C1=O", "note": "(stereo not drawn)", "values": [{"measurement": "IC50", "setting": "[1]", "value": 8, "unit": "µM"}, {"measurement": "Activity", "setting": "3T3-L1 [2]", "value": "Active"}, {"measurement": "Activity", "setting": "HepG2 [3]", "value": "Active"}, {"measurement": "inhibition", "setting": "[4]", "value": "Active"}]}, {"smiles": "CCN(CC)CCNC(=O)c1c(C)[nH]c(/C=C2\\C(=O)Nc3ccc(F)cc32)c1C", "values": [{"measurement": "inhibition", "setting": "[5]", "value": 71.4, "unit": "%"}, {"measurement": "inhibition", "setting": "[6]", "value": 70.6, "unit": "%"}]}, {"smiles": "CCCCCCCCCCCCCC(=O)NCC(=O)N[C@@H](CCCCN)C(=O)N[C@@H](CCC(=O)O)C(=O)N[C@@H](C)C(=O)N1CCC[C@H]1C(=O)N1CCC[C@H]1C(=O)N[C@@H](C)C(=O)N1CCC[C@H]1C(=O)N1CCC[C@H]1C(=O)N[C@@H](CCC(N)=O)C(=O)N[C@@H](COP(=O)(O)O)C(=O)N1CCC[C@H]1C(N)=O", "note": "(Myristoyl-GKEAPPAPPQ[pS]P-NH2)", "values": [{"measurement": "IC50", "setting": "[1]", "value": 40, "unit": "µM"}]}, {"smiles": "Cn1cc(C2=C(c3ccc(Cl)cc3Cl)C(=O)NC2=O)c2ccccc21", "values": [{"measurement": "Activity", "setting": "HepG2 [7]", "value": "Active"}, {"measurement": "inhibition", "setting": "[8]", "value": "Active"}, {"measurement": "Activity", "setting": "3T3-L1 [9]", "value": "Active"}]}, {"smiles": "CCCCCCCCCCCC(=O)NNC(=O)C1Sc2ccccc2N(Cc2ccccc2)C1=O", "note": "(stereo not drawn)", "values": [{"measurement": "inhibition", "setting": "[10]", "value": 13, "unit": "%"}, {"measurement": "inhibition", "setting": "[11]", "value": "Active"}, {"measurement": "inhibition", "setting": "[5]", "value": 0, "unit": "%"}, {"measurement": "inhibition", "setting": "[12]", "value": 36, "unit": "%"}, {"measurement": "IC50", "setting": "[1]", "value": 10, "unit": "µM"}, {"measurement": "Activity", "setting": "3T3-L1 [2]", "value": "Active"}, {"measurement": "Activity", "setting": "HepG2 [3]", "value": "Active"}, {"measurement": "inhibition", "setting": "[6]", "value": 0, "unit": "%"}, {"measurement": "inhibition", "setting": "[13]", "value": 12.2, "unit": "%"}, {"measurement": "inhibition", "setting": "[14]", "value": 29.3, "unit": "%"}, {"measurement": "inhibition", "setting": "[15]", "value": 0, "unit": "%"}, {"measurement": "inhibition", "setting": "[16]", "value": 0, "unit": "%"}, {"measurement": "inhibition", "setting": "[17]", "value": 12.4, "unit": "%"}, {"measurement": "inhibition", "setting": "[4]", "value": "Active"}]}, {"smiles": "Cn1sc(=O)n(Cc2ccccc2)c1=O", "values": [{"measurement": "Activity", "setting": "3T3-L1 [18]", "value": "Active"}, {"measurement": "Activity", "setting": "HepG2 [19]", "value": "Active"}, {"measurement": "inhibition", "setting": "[20]", "value": "Active"}]}, {"smiles": "CN(C)C/C=C/C(=O)Nc1cc2c(Nc3ccc(F)c(Cl)c3)ncnc2cc1O[C@H]1CCOC1", "values": [{"measurement": "inhibition", "setting": "[16]", "value": 88.1, "unit": "%"}]}]}
